The source of these data is patent US8729047B2, “Compositions for inhibiting redox-sensitive GTPases” (Board of Regents, The University of Texas System, priority 2010, dated 2014).

One experiment concerns the target RhoC C20S (Homo sapiens, UniProt P08134, C20S). Nature of the experiment: RhoC expression (Western) and RhoC activity assay in cells. Conditions: HME-C20S RhoC cells, 6-TG three days. Type of experiment: cell-based. Also on record: expressed in transfected cells; host or cells: human mammary epithelial (HME) cells. The method, then:
(§1) FIG. 14. Determination of cell invasiveness in the presence and absence of thiopurines and/or redox agents. […] Western blot analysis representing the total expression of RhoC in these cells also is shown. (B) Experimental procedures for the determination of the time-dependent motility of cells using the QCM Cell Invasion Assay kit in the presence and absence of 6-TG and DETA/NO are described elsewhere herein.
(§2) Cells were lysed in an extraction buffer containing 50 mM NaCl, 5 mM MgCl2, 1 mM ethylenediaminetetraacetic acid (EDTA), 0.1 mM diethylenetriaminepentaacetic acid (DTPA), and 0.1% NP40 in 150 mM TrisHCl (pH 8.0). The content of […] RhoC in cells then was determined by using Western analysis that relies on a monoclonal anti-RhoC antibody (Biocompare, South San Francisco, Calif.). To determine RhoC activity, the colorimetric RhoA activation assay Biochem Kit (Cytoskeleton, Denver, Colo.) was used essentially as described in the previous study (Hall et al. Neoplasia 10, 797-803 (2008)) except that the RhoC specific antibody (vide supra), instead of the RhoA antibody included in the assay kit, was used for this analysis.

For experiment [1], the target named is T1, RhoC (Homo sapiens, UniProt P08134). The description is as above. Also noted: endogenous in cells; host or cells: SUM149, SUM102, SW480, HCCLM3 (endogenous); HME-RhoC (transfected with wild type RhoC). In kind it is cell-based. The method, then: as §1, §2
In the next experiment the target is Rac1 (Homo sapiens, UniProt P63000). Nature of the experiment: Guanine nucleotide exchange of [3H]GDP-loaded GTPase with 6-TGDP (FIG. 13A). In kind it is binding. Also on record: made in house; host or cells: E. coli. As for the experimental part: (§3) FIG. 13. Guanine nucleotide exchange of small GTPases with 6-TGDP. (A) To monitor 6-TGDP-mediated GTPase GDP dissociation, [^3H]GDP-loaded GTPase (1 μM) was incubated with 6-TGDP (0-2000 μM) for 1 h. (B) To monitor GTPase 6-TGDP dissociation by GDP (0-2000 μM) in the presence and absence of dithiothreitol (DTT), 6-TGDP-loaded GTPase (˜1 μM) was treated with .NO2 (˜3 μM) under anaerobic conditions and was incubated with various concentrations of [^3H]GDP (0-2000 μM) in the presence and absence of DTT (10 mM) for 1 h. For all assays, aliquots were withdrawn and spotted onto nitrocellulose filters. The filters were then washed three times with an assay buffer, and radioactivity was determined using a Beckman-Coulter scintillation counter. The resultant radioactivity (dpm) values associated with GTPase-bound [^3H]GDP were converted into the fraction of mol nucleotide per mol total GTPase. The data presented represent mean and standard error values from triplicate measurements. The apparent dissociation constants (appKD values) of GTPase 6-TGDP association ([^3H]GDP dissociation, A); and 6-TGDP dissociation ([3H]GDP association, B) were obtained by fitting the data to a simple dissociation and association, respectively. (A) The ^appKD values of Ras, RhoC, RhoA and Rac1 for 6-TGDP, are, respectively, 2300, 230, 224, and 245 μM [6-TGDP]. (B) The appKD values of RhoC with and without DTT are, respectively, 560, and 1000 μM [[^3H]GDP], whereas the ^appKD values of Ras with and without DTT are 530, and 520 μM [[^3H]GDP], respectively. The standard errors of each ^appKD value are less than 10% of their given values, and regression values associated with the fit were r^2>0.9560.
A kinetic assay method using radiolabeled GDP ([^3H]GDP) was established. The apparent dissociation constants (^appKD 6-TGDP) of Rho GTPases (including RhoA, Cdc42, and Rac1/2/3) and Ras with 6-TGDP were determined (FIG. 13). The results of this preliminary kinetic study provided strong support for the mechanism proposed for the role of 6-TGNP in RhoC inactivation (FIG. 7).
The true dissociation constant (^trueKD 6-TGDP) of Ras, RhoC, RhoA and Rac1 for 6-TGDP was then calculated to be ˜20.7 pM, 212 μM, 208 μM, and 158 μM [6-TGDP] by using a compensation equation, ^trueKD 6-TGDP=^appKD 6-TGDP/(1+[GDP]/^trueKD GDP) (95), in conjunction with the values given [(^appKD 6-TGDP of Ras, RhoC, RhoA, and Rac1=2300, 230, 224, and 245 μM (FIG. 13) and ^trueKD GDP=9 pM, 12 μM, 13 μM and 1.8 μM, respectively. The ^trueKD GDP of Ras, RhoA and Rac1 was determined previously (Lenzen et al. Biochemistry 37, 7420-7430 (1998); Heo et al. Biochemistry 44, 6573-6585 (2005)) and the ^trueKD GDP of RhoC was further determined. Example: ^trueKD 6-TGDP for Ras=2300 μM/(1+1 μM GDP/[…])=[…] [6-TGDP]].

Experiment [2] deals with T1, RhoC. Nature of the experiment: [3H]GDP displacement of 6-TGDP from .NO2-treated 6-TGDP-loaded GTPase with/without DTT (FIG. 13B). Also noted: made in house; host or cells: E. coli. In kind it is binding. The method, then: as §3
The ^appKD [3H]GDP was converted into ^trueKD [3H]GDP by using a compensation equation, ^trueKD [3H]GDP=^appKD [3H]GDP/(1+[6-TGDP]/^trueKD GDP) (Segel, I. H. (1993) Enzyme kinetics, A Wiley-Interscience publication, New York) (see above)). The calculated ^trueKD [3H]GDP values of RhoC in the presence and absence of DTT were estimated to be 516 μM and 923 μM, respectively. […] Treatment with DTT, a reducing agent, disrupts the disulfide bond between RhoC and 6-TGDP, liberating 6-TGDP from RhoC, and thereby permitting [^3H]GDP to bind to RhoC.

SMILES strings stand for the structures. pKd: −log10 of the molar value. Read-outs that look alike come from different tables or passages of the source.

T1 sequence (P08134 whole entry): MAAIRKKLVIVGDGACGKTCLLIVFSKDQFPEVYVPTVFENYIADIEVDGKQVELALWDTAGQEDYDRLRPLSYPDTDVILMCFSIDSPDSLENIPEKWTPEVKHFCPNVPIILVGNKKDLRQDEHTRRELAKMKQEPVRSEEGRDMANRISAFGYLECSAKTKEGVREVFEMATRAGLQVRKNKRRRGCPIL
Chain of RhoC C20S (P08134 whole entry C20S): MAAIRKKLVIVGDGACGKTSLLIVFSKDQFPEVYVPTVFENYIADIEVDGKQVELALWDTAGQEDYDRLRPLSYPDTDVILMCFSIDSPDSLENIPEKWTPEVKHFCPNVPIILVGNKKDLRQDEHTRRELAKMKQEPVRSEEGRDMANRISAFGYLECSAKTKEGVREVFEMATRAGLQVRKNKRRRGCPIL

`Nc1nc2nc[nH]c2c(=S)[nH]1` [6-TG, 6-thioguanine]: the “activity and total expression of RhoC C20S” value at RhoC C20S is “unchanged”. For the same molecule, at RhoC [1] (SUM149 and HME-RhoC cells, 6-TG three or more days), the “level of total RhoC expression” value was “not changed”. For the same molecule, on RhoC [1] (SUM149 and HME-RhoC cells, both 6-TG and DETA/NO (or GSNO), three days), the RhoC activity entry was “essentially no RhoC activity was detected”. The “activity of RhoC” value on RhoC [1] (SW480 and HCCLM3 cells, 6-TG and a NO donor, not shown) is “drastically diminished”.
Take `Nc1nc2c(ncn2[C@@H]2O[C@H](COP(=O)(O)OP(=O)(O)O)[C@@H](O)[C@H]2O)c(=S)[nH]1` [6-TGDP, 6-thioguanosine diphosphate]: the pKd at Rac1 ([3H]GDP-loaded GTPase 1 μM, 6-TGDP 0-2000 μM, 1 h, FIG. 13A, read-out: appKD for 6-TGDP) was 3.61; on Rac1 (calculated by compensation equation from appKD 6-TGDP and trueKD GDP, read-out: trueKD 6-TGDP), 3.80.
Consider `Nc1nc2c(ncn2[C@@H]2O[C@H](COP(=O)(O)OP(=O)(O)O)[C@@H](O)[C@H]2O)c(=O)[nH]1` [GDP], for which the pKd was 3.03 on RhoC [2] (absence of DTT, calculated by compensation equation, read-out: trueKD [3H]GDP); 3.29 at RhoC [2] (presence of DTT, calculated by compensation equation, read-out: trueKD [3H]GDP); 3.25 at RhoC [2] (with DTT 10 mM, 6-TGDP-loaded GTPase ~1 μM treated with .NO2 ~3 μM, anaerobic, 1 h, read-out: appKD for [3H]GDP (6-TGDP dissociation)); 3.00 on RhoC [2] (without DTT, 6-TGDP-loaded GTPase ~1 μM treated with .NO2 ~3 μM, anaerobic, 1 h, read-out: appKD for [3H]GDP (6-TGDP dissociation)).
